Laboratory results reported in article PMC8113538, “Acute toxicity analysis of an inhibitor of BCL2, Disarib, in rats” (Scientific Reports, 2021).

Columns and labels:
[1] = system: Wistar rats; experiment: Haematological analysis after single oral dose; format: in vivo, Wistar rats (Rattus norvegicus); conditions: for platelet count vs control / Eosinophils / MCH (mean corpuscular haemoglobin) / MCHC (mean corpuscular haemoglobin concentration) / MCV (mean cell volume) / Monocytes / PCV (packed cell volume): Wistar rats
Procedure: After 14 days of Disarib treatment, two animals from each group were sacrificed using CO2 asphyxiation, and blood was collected in EDTA-coated vials by heart puncture. Red blood cells (RBC), white blood cells (WBC), platelet counts (PLT), packed cell volume (PCV), hemoglobin (HGB), mean cell volume (MCV), mean corpuscular hemoglobin (MCH), mean corpuscular hemoglobin concentration (MCHC), lymphocytes, neutrophils, eosinophils and monocytes were analyzed as described before[28],[31],[43]. Analysis of blood samples was performed at Rohana Veterinary Diagnostic Lab, Bangalore, India.

[2] = system: Wistar rats; experiment: Serum biochemistry (liver and kidney function); format: in vivo, Wistar rats (Rattus norvegicus); conditions: serum day 14
Procedure: After 14 days of Disarib administration, two animals were sacrificed using CO2 asphyxiation from each group, and blood was collected in tubes without using anticoagulant and centrifuged (900×g, 10 min). Serum glutamic pyruvic transaminase (SGPT), serum glutamic oxaloacetic transaminase (SGOT), alkaline phosphatase (ALP), albumin, total protein, bilirubin, blood urea nitrogen (BUN), creatinine, uric acid, and phosphorous were analyzed as described earlier[28],[29]. Analysis of serum samples was performed at Rohana Veterinary Diagnostic Lab, Bangalore, India.

[3] = system: bone marrow cells; experiment: Micronucleus assay for genotoxicity; format: in vivo; conditions: Wistar rats, 50 mg/kg b. wt. oral; 24, 48 and 72 h post-treatment
Procedure: To evaluate genotoxicity caused by Disarib at the effective dose, micronucleus assay was performed[32]–[34]. Wistar rats (n = 6) were orally administered with Disarib (50 mg/kg), and bone marrow cells were collected after 24, 48, and 72 h post-treatment. Bone marrow cells were flushed out in 1X PBS containing EDTA, centrifuged, fixed (2% PFA) and stained with DAPI. Cells exposed to γ-irradiation (4 Gy) served as a positive control for the assay and were imaged using a fluorescence microscope (Nikon, Tokyo, Japan). At least 500 cells were counted from each animal for each time point, and data was plotted and represented as a bar diagram.

[4] = system: interaction of BCL2 with BAX; set-up: method as in PMID 28223017; conditions: cited from earlier work
[5] = set-up: method as in PMID 27693384; conditions: mice, cited from earlier work
[6] = system: Wistar rats; experiment: Histology (H&E) of organs; format: in vivo, Wistar rats (Rattus norvegicus); conditions: 2000 mg/kg oral, day 14, H&E
Procedure: At the end of the experimental period (14 days), two animals from each group were sacrificed following CO2 asphyxiation. Liver, kidney, intestine, spleen, lungs, and heart were collected, fixed in 4% paraformaldehyde (PFA) and processed for histology, as described before[44]–[46]. For histological studies, tissues from rats treated with the highest dose (2000 mg/kg) and the vehicle control group were selected. Paraffin blocks were prepared and sections were taken using a rotary microtome (Leica Biosystems, Buffalo Grove, IL, USA) with a thickness of 5 µm. Following deparaffination, sections were stained with hematoxylin and eosin (H&E), mounted in DPX, and imaged under a bright-field microscope (Carl Zeiss AxioVision, Oberkochen, Germany).

[7] = system: BCL-xL; set-up: method as in PMID 28223017, PMID 27693384; conditions: cited from earlier work
[8] = system: interaction of BCL2 with BAK; set-up: method as in PMID 28223017; conditions: cited from earlier work
[9] = system: mice tumor models; conditions: cited from earlier work
[10] = 100 mg/kg oral, day 14, animal a
[11] = 100 mg/kg oral, day 14, animal b
[12] = 1000 mg/kg oral, day 14, animal a
[13] = 1000 mg/kg oral, day 14, animal b
[14] = 2000 mg/kg oral, day 14, animal a
[15] = 2000 mg/kg oral, day 14, animal b
[16] = Wistar rats, 100, 1000, 2000 mg/kg oral, day 14
[17] = Wistar rats, 100, 1000, 2000 mg/kg oral

For O=C1Nc2ccccc2/C1=C/c1c(-c2ccc(Br)cc2)nc2sc(Cc3ccc(Cl)cc3)nn12 [Disarib], the “platelet count vs control” value ([1]; 100 mg/kg oral, day 14) was “such a difference was not observed”, the Eosinophils [1, 10] was 1.0% and the “MCH (mean corpuscular haemoglobin)” value [1, 10] was 21.9 pg. The “MCHC (mean corpuscular haemoglobin concentration)” value (“MCHC” below) [1, 10] was 36.5%, the “MCV (mean cell volume)” value [1, 10] was 60.2 fL and the Monocytes [1, 10] was 3.5%. The “PCV (packed cell volume)” value [1, 10] was 40.0%, the Eosinophils [1, 11] was 1.2% and the “MCH (mean corpuscular haemoglobin)” value [1, 11] was 22.0 pg. For the same compound, the “MCHC” value [1, 11] was 33.0%, the “MCV (mean cell volume)” value [1, 11] was 66.6 fL and the Monocytes [1, 11] was 4.2%. The “PCV (packed cell volume)” value [1, 11] was 38.4%, the “platelet count vs control” value ([1]; 1000 mg/kg b. wt. oral, day 14) was “marginal variation” and the Eosinophils [1, 12] was 1.0%. For the same compound, the “MCH (mean corpuscular haemoglobin)” value [1, 12] was 21.2 pg, the “MCHC” value [1, 12] was 32.3% and the “MCV (mean cell volume)” value [1, 12] was 65.7 fL. The Monocytes [1, 12] was 3.2%, the “PCV (packed cell volume)” value [1, 12] was 40.2% and the Eosinophils [1, 13] was 1.2%. For the same compound, the “MCH (mean corpuscular haemoglobin)” value [1, 13] was 21.9 pg, the “MCHC” value [1, 13] was 27.9% and the “MCV (mean cell volume)” value [1, 13] was 78.6 fL. The Monocytes [1, 13] was 8.1%, the “PCV (packed cell volume)” value [1, 13] was 36.9% and the “platelet count vs control” value ([1]; 2000 mg/kg oral, day 14) was “such a difference was not observed”. For the same compound, the Eosinophils [1, 14] was 1.0%, the “MCH (mean corpuscular haemoglobin)” value [1, 14] was 21.2 pg and the “MCHC” value [1, 14] was 33.4%. The “MCV (mean cell volume)” value [1, 14] was 63.7 fL, the Monocytes [1, 14] was 2.4% and the “PCV (packed cell volume)” value [1, 14] was 41.2%. The Eosinophils [1, 15] was 1.1%, the “MCH (mean corpuscular haemoglobin)” value [1, 15] was 20.7 pg and the “MCV (mean cell volume)” value [1, 15] was 63.3 fL. For the same compound, the Monocytes [1, 15] was 3.0%, the “PCV (packed cell volume)” value [1, 15] was 43.3% and the “HGB content vs control” value [1, 16] was “no significant difference”. The “WBC counts vs control” value [1, 16] was “no significant difference”, the “lymphocytes count vs control” value [1, 16] was “no significant difference” and the “neutrophils count vs control” value [1, 16] was “no significant difference”. The “total number of RBC vs control” value [1, 16] was “no significant difference”, the “hepatic function tests (SGPT, ALP, SGOT, total protein, Albumin, Bilirubin)” value [2, 17] was “did not cause any adverse effect on liver function” and the “renal function (BUN, Creatinine, Phosphorous, Uric acid) vs control” value [2, 17] was “did not have any appreciable variation”. For the same compound, the “ALP level vs control” value ([2]; Wistar rats, 100 and 1000 mg/kg oral, higher than control) was “the increase was limited and was not significant”, the “SGOT level vs control” value ([2]; Wistar rats, maximal dose (2000 mg/kg) oral, within normal range, not significant) was “marginally higher” and the “genotoxicity (micronucleus formation in bone marrow cells)” value [3] was “no DNA damage induced by Disarib”. For the same compound, the “disruption of BCL2-BAX interaction” value [4] was “did not disrupt the interaction of BCL2 with BAX”, the “time at which maximum circulating concentration (Cmax) was obtained” value ([5]; 10 mg/kg intraperitoneal) was 30 min and the “clearance rate (CL)” value [5] was 6.3 mL/min/kg. The t1/2 [5] was 2.3 h, the intestine histology [6] was “Normal structure and organization” and the kidney histology [6] was “No glomerular dilation and tubular necrosis”. For the same compound, the liver histology [6] was “no cellular change in lobular liver texture, hepatocytes and sinusoidal spaces”, the “lungs and heart histology” value [6] was “did not show difference in the structure of alveoli and cardiac muscles” and the spleen histology [6] was “no difference in spleen architecture”. For the same compound, the “interaction with BCL-xL” value [7] was “not with other antiapoptotic proteins such as BCL-xL”, the “disruption of BCL2-BAK interaction” value [8] was “disruption of the interaction of BCL2 with its proapoptotic partner BAK” and the tumor regression ([9]; mice, intraperitoneal route) was “efficient tumor regression comparable to that of ABT199”. For the same compound, the tumor progression ([9]; oral administration, multiple mice tumor models) was “significant reduction in tumor progression”.
